Assays:
[1] = test system: A2780 cells; experiment: Mitochondrial membrane potential analysis; assay type: cell-based, human; conditions: A2780, 24 h incubation, IC50 concentrations
Protocol: In order to get more insight about the mechanisms involved in the induction of cell death in the A2780 cells treated with the complexes 4, 6, and 7, the detection of mitochondrial membrane potential in the cells was performed by means of flow cytometric analysis using a specific kit. […] Both these agents induced the apoptosis via the intrinsic route of apoptosis activation, characterized by the efflux of cytochrome c from the damaged mitochondria to the cytoplasm of the cells, followed by the formation of […] and activation of effector caspases 3/7 leading to the destruction of cell cytoskeleton and fragmentation of DNA. […] The major suspect in this case is the induction of cuproptosis, a relatively newly discovered mechanism of cell death caused by copper, which is characterized by the high intracellular levels of copper, low levels of apoptosis, yet substantial antiproliferative effects on the target cells. […]
The cells were washed with PBS, detached by trypsin treatment, isolated by centrifugation, and resuspended in 500 iL of culture medium. […] The samples were measured in triplicates, while at least 10^4 events were recorded using BD FACSVerse flow cytometer (Becton Dickinson, USA). […]

[2] = test system: A2780 cells; experiment: Cell death induction, Annexin V / propidium iodide flow cytometry; assay type: cell-based, human; conditions: A2780, 24 h; applied at concentration causing 50% decrease in proliferation
Protocol: The induction of cell death in A2780 cancer cells was monitored by flow cytometry. Three types of cells were identified by incubation with Annexin V antibody and propidium iodide (PI). The normal cells were Annexin V and PI negative.
(§1) Both assays were performed according to the manufacturers' protocols with one modification in caspase induction assay, which was the use of CellEvent™ Caspase-3/7 Green Detection Reagent only for detection of Caspase-3/7 activation. […] After the 24 h incubation period, cells were washed once with PBS (0.1 M, pH 7.4), detached by trypsinization (0.25% trypsin-EDTA (Gibco™), resuspended in 500 L of culture medium and divided into two separate samples. The first sample was used in the apoptosis assay and the second one was used to detect the activation of caspases 3/7 in A2780 cells. The samples were analyzed using the BD FACSVerse flow cytometer (Becton Dickinson, USA) in three separate experiments, while at least 10^4 events were recorded for each sample prepared in duplicates.

[3] = test system: A2780 cells; experiment: Cell cycle analysis by flow cytometry; assay type: cell-based, human; conditions: A2780, 24 h; 4 and 6 at 3 μM, 7 at 15 μM, cisplatin at 19 μM
Protocol: Similar cellular effects were described for a number of copper(II) complexes previously for a number of copper(II) complexes involving various ligands [40-43.]
The A2780 cells (Sigma, 93112519-1VL) were cultivated according to the producer's instructions and seeded at the concentration of 10^4 cells/well in 96-wells. […] After 24 h, the cells were washed once with PBS (0.1 M, pH 7.4) and cell cycle analysis was performed according to the protocol based on BD Cycletest™ Plus DNA kit (Becton Dickinson, USA). Measurements were performed using BD FACSVerse flow cytometer (Becton Dickinson, USA) in three independent experiments, each done in duplicate, while at least 5×10^3 events were recorded for each sample.

[4] = test system: A2780 cells; experiment: Autophagy induction, CYTO-ID kit flow cytometry; assay type: cell-based, human; conditions: A2780, 24 h; 4 and 6 at 3 μM, 7 at 15 μM, cisplatin at 19 μM
Protocol: To further explore the mechanisms involved in the cellular death of A2780 cells induced by the complexes, the autophagy progression was monitored in the cells using a specific flow cytometry-based kit. The autophagy signaling caused by the incubation with the tested compounds was compared to the untreated control group of cells and positive control group, which included cells treated with the chloroquine/rapamycin (CQ/Rapamycin) mixture inducing strong autophagic response in cells. […] In fact, autophagy might have a dual role in cancer as it can help the cancer cells to overcome metabolic stress (hypoxia, lack of nutrients) and suppress tumor progression through degradation of oncogenic proteins. Many anticancer agents, including the copper(II) complexes, which mechanism of action includes different cellular processes, such as inhibition of mTORC1, proteasome inhibition, inhibition of histone deacetylases or topoisomerases, induce autophagy. On the other hand, the apoptosis is evidently a main route of cell death in the A2780 cells caused by complex 7.
The analyses were performed according to the manufacturer's protocol on A2780 cells pretreated for 24 h by the tested compounds. […] The samples were analyzed using the BD FACSVerse flow cytometer (Becton Dickinson, USA) in three separate experiments, while at least 10^4 events were recorded for each sample prepared in duplicates. […]

[5] = test system: A2780 cells; experiment: Intracellular ROS/superoxide production; assay type: cell-based, human; conditions: A2780, 24 h
Protocol: The effects of the tested compounds on the ROS production in A2780 cells and on the progression of the oxidative stress caused by the known pro-oxidant agent (pyocyanin) were observed by means of flow cytometry using a specific kit of intracellular ROS, and superoxide detection, respectively. […] Approximately the same pattern was identified also in case of superoxide production (FIG. 16).
The oxidative stress analysis was performed using ROS-ID® Total ROS/Superoxide detection kit (Enzo Life Sciences, US) according to the manufacturer protocol. The samples were analyzed in triplicates on multimode microplate reader Infinite PRO M200 (Tecan, Switzerland). The control samples contained 500 iM pyocyanin.

[6] = test system: caspases 3/7 in A2780 cells; experiment: Activation of effector caspases 3/7, flow cytometry; assay type: cell-based, human; conditions: A2780, 24 h incubation, IC50 concentrations
Protocol: To assess the participation of apoptosis on the cell death induced by the studied complexes, the activity of effector caspases 3/7 in A2780 cells incubated with the tested compounds was determined by flow cytometry. […] This unequivocally means that the cell death they induce proceeds via a mechanism independent from caspases.
as §1

[7] = test system: all tested cancer cell lines; conditions: cited from earlier work

Compound: N.N.[Cl][Pt][Cl] [Cisplatin, cisplatin, reference compound]
- mitochondrial membrane damage [1]: impairment of the mitochondrial membrane function/permeability
- induction of cell death (apoptosis and necrosis) [2]: most intensive induction of cell death processes
- cell-cycle modification [3]: significant arrest of cells in S phase
- activation of autophagy [4]: significant activation of autophagy
- promotion of oxidative stress (ROS production) by the compound itself ([5]; no pyocyanin pretreatment): none of the tested complexes 4, 6, and 7 nor cisplatin showed any significant abilities to promote the oxidative stress by themselves
- effect on oxidative stress caused by pyocyanin pretreatment ([5]; pretreated with pyocyanin): only slight antioxidative effects
- activation of effector caspases 3/7 [6]: significant activation

Compound: [Cu+2].[O-]c1cccc2cccnc12.[O-]c1cccc2cccnc12 [[Cu(8-HQ)2]]
- IC50 compared with cisplatin [7]: less than that of cisplatin

Compound: [Cu+2].[O-]c1c(I)cc(Cl)c2cccnc12.[O-]c1c(I)cc(Cl)c2cccnc12 [[Cu(CQ)2]]
- IC50 compared with cisplatin [7]: less than that of cisplatin

Compound: CCN(CC)C(=S)[S-].CCN(CC)C(=S)[S-].[Cu+2] [[Cu(DDC)2]]
- IC50 compared with cisplatin [7]: less than that of cisplatin

Compound: On1ccccc1=S.On1ccccc1=S.[Cu] [[Cu(Pyr)2]]
- IC50 compared with cisplatin [7]: less than that of cisplatin
